Consider 2 compounds from patent US12247972B2 (priority 2018, dated 2025).

Experiment [1] concerns NG108-15 cells (endogenous glutamate receptor). Briefly: Intracellular potential recording of cultured nerve cells with C-M magnet electrode (glutamate response). Format: cell-based. The note with it: final external fluid concentration 800 μM. As to the method: NG108-15 cells were used for the purpose of showing that recording is possible from cultured nerve cells. NG108-15 cells (neuroblastoma-glioma hybrid cells) were cultured in a culture medium containing DMEM (Sigma-Aldrich), HAT supplement (Thermofisher) and 10% FBS (Biowest). NG108-15 was seeded on a cover glass that was coated with 0.1% Polyethyleneimine (pH8.4, 150 mM Sodium Tetra-Borate (Wako)), and cultured in the culture medium, in which FBS concentration was reduced to 5% from the above culture medium, and the nerve differentiation was induced by adding 500 μM Ibuprofen (Wako). […]
PEI and PEG-gold coated magnetic nanoparticles were mixed and left at room temperature for 3 hours. This mixed solution is moved to the cell-adhesive surface of the neodymium magnet and left for additional 15 minutes to magnetically bond the gold nanoparticles to the neodymium magnet electrode.
The above nanoparticle-bonding magnet electrode was placed on the cultured cells placed on an iron plate. […]
In addition to the spontaneous action potential, the following experiment was conducted to confirm whether the neuronal activity by the neurotransmitter glutamate can be recorded. […] Glutamic acid was administered to the extracellular fluid (final external fluid concentration 800 μM), and the response mediated by glutamate receptors was recorded. […]

Experiment [2] relates to NG108-15 cells. Description: Intracellular potential recording in differentiated cultured nerve cells with MagEle not isolated from external fluid. The class given is cell-based. Particulars: 3 mM; after 20 μM Veratridine. The procedure: In this experiment, the cultured nerve cells (NG108-15 cells) used in Example 3 were induced and differentiated into nerves under the same differentiation conditions as in the experiment example 3. In the same manner as in Example 3, the MagEle (magnet electrode) is moved from above the target cell toward the cell, and the conductive gold-coated magnetic nanoparticles adsorbed on the MagEle are adhered to the cell membrane to penetrate it. Then, the intracellular potential was measured by connecting the MagEle to the (+) pole and a conductor provided on an insulator (parafilm film) that completely covers the upper surface of the MagEle to the ground. At that time, although the insulator completely covered the top and sides of the (+) pole MagEle, the surface facing the cover glass, to which the cells adhere was not covered, and the cells were not isolated from the external fluid (FIG. 19).
The NG108-15 cells were differentiated by culturing for 3 weeks in DMEM/HAT medium containing 2% FBS supplemented with Forskolin (10 μM).

Take `N[C@@H](CCC(=O)O)C(=O)O` [Glutamate, Glutamic acid]: the “time for glutamate-induced membrane potential change to return to baseline” value in experiment [1] (decay due to desensitization) was “about 90 seconds”. The “membrane potential response mediated by glutamate receptors” value in experiment [1] (neural differentiation induction for 2 days) is “depolarization (upward change) response of the membrane potential”.
`CCN(CC)CC(=O)Nc1c(C)cccc1C` [Lidocaine]: the “spontaneous action potential induced by Veratridine” value in experiment [2] is given as “suppressed”.
